What was measured:
[1] = test system: MCF7, T47D, and Zr-75-1 cells; experiment: BrdU incorporation under hormone deprivation / antiestrogen (CDT, CDT/Tam, CDT/ICI); assay type: cell-based, human
Method: To understand the impact of RB deficiency on the response to hormone deprivation therapy, cells are cultured in CDT, CDT/Tam, or in the presence of pure antiestrogen, ICI182780 (CDT/ICI). Following treatment with these modalities, cells are labeled with BrdU to determine the influence of each agent on cell-cycle progression and the corresponding influence of RB knockdown on this response (FIG. 4B). These experiments are recapitulated in the polyclonal populations of T47D and Zr-75-1 donor and siRb88 cells (FIG. 4C). […] To elucidate the long-term growth effects of these therapies, cell proliferation assays are performed over 9 days. RB-proficient and -deficient MCF7 cells are seeded at equal densities and cultured in CDT/Tam (FIG. 4D). […] Similar results are evident in the same experiments with both T47D and Zr-75-1 RB-proficient and -deficient polyclonal pools (FIG. 4E).
(§1) RB target gene upregulation is a prognostic indicator in human breast cancers. RB performs a myriad of functions, the most well understood being repression of the E2F family of transcription factors. To determine the specific influence of the E2F axis on bypassing therapy, an activator E2F is overexpressed in wild-type MCF7 cells. Specifically, cells are infected either with an adenovirus encoding E2F3 (ad-E2F3) or a control virus (Ad-LacZ) and are harvested 3 days after infection for immunoblot analysis of levels of known RB-E2F targets (FIG. 5A). […] As expected, no changes are detected in RB levels, and CDK4 serves as a loading control. In order to assess the response to therapeutic intervention, 3 days after infection Ad-E2F3- or AdLacZ-infected MCF7 cells are separated into 2 major treatment groups: hormone therapy and DNA damage therapy. The estrogen ablation group is then cultured in the absence of estrogen and in the presence of Tam and ICI as described above. Alternatively, the cells in the DNA damage therapy group are treated with 16 μM CDDP for 18 hours prior to washing or treatment with 5 Gy IR. Cells from both therapy groups are BrdU labeled, and the replicative fraction of treated cells is determined with respect to untreated control cells (FIG. 5B).
To study the effect of estrogen depletion, cells are cultured for 72 hours in phenol red-free DMEM supplemented with 10% CDT serum with addition of 10^−9 M 4-HydroxyTam or 10^−6 M ICI where indicated. Cell growth assays are performed by trypsinizing cells and counting by trypan blue exclusion every 3 days.
Cells treated with IR are exposed to ^137Cs (dose rate: 0.67 Gy/min) at room temperature in tissue culture media. Culture with clinical grade CDDP for 18 hours is performed for all CDDP treatments. For all proliferation studies, cells are labeled with BrdU for 10 hours or 5 hours for LXSN/LXSN-p53dd infected cells, and BrdU immunofluorescence is performed as previously described. All BrdU results are expressed as a percentage of untreated control cells set to 100%, unless otherwise noted.

[2] = test system: MCF7, T47D, and Zr-75-1 cells; experiment: BrdU incorporation (cell-cycle checkpoint) after CDDP treatment; assay type: cell-based, human
Method: The RB and p53 tumor suppressors are known to be critical for induction of DNA damage checkpoints, and therapies inducing DNA damage are used as an additional line of treatment for ER-positive breast cancers resistant to hormonal therapy. Therefore, the role of these tumor suppressors in the response to therapeutic doses of DNA-damaging agents is investigated. Wild-type MCF7, T47D, and Zr-75-1 cells are treated with 0, 8, or 16 μM CDDP and labeled with BRDU to determine the effect of the agent on cell-cycle progression. […] To specifically probe the impact of RB in the response to DNA damage, T47D and Zr-75-1 polyclonal donor and siRb88 cells are utilized. […] To confirm these findings, MCF7 donor 1 and siRb28 cells are treated with either CDDP as described above or with 0, 2.5, or 5 Gy ionizing radiation (IR). […] To determine the long-term effect of DNA damage therapy upon proliferation, cell growth assays are performed wherein the RB-proficient and deficient MCF7 clones are plated at equal density and treated with 2.5 or […].
as §1
The MCF7, T47D, and Zr-75-1 cell lines are obtained from ATCC and propagated in DMEM containing 10% FS supplemented with 100 U/ml penicillin/streptomycin and 2 mM L-glutamine at 37° C. in air containing 5% CO2. […] Cells are infected with Ad-lacZ at a multiplicity of infection of 50, at which 95% of cells are infected (as determined by plaque assay in 293 cells) or with 2.7×10^11 virus particles/ml of Ad-E2F3 and cultured for 3 days prior to use. […]

[3] = test system: MCF7 donor or siRb xenograft tumors; experiment: Nude mouse xenograft therapeutic study; assay type: in vivo, nude mice
Method: The xenograft model system is then utilized to test the response of RB-deficient tumors to CDDP therapy. Tumors are developed in the flanks of mice by injecting MCF7 donor or siRb cells into the flanks of mice and implanting a […] (E2) pellet into the back. When tumors reached 100-110 mm^3, mice received 5 mg/kg CDDP every 4 days for 5 courses.
To assess the role of RB in the therapeutic response of MCF7 cells in vivo, the xenograft model is again employed. Upon the attainment of tumors of approximately 100-120 mm^3, mice are deprived of estrogen and treated with Tam. […] (FIG. 4F). […] All tumors are weighed upon exclusion, and RB-deficient tumors are more than 3 times heavier than control tumors following Tam therapy (FIG. 4G).
Five- to 8-week-old female ovariectomized athymic nude mice are anesthetized, and an E2 pellet (1.7 mg/pellet, 90-day release) or placebo is surgically implanted in the back. Following implantation, 200 μl of a PBS- and phenol red-free Matrigel matrix basement membrane, solution (3:1) containing 2×10^6 cells is injected subcutaneously into the flank, or contralaterally where noted. Tumor volume is measured with calipers every 4 days using the equation V=0.52 (width)^2 ×(length). In the therapeutic studies, when tumor volume reaches 100-120 mm^3, animals are placed into 1 of 3 therapeutic groups (each group containing at least 6 animals): control animals retaining the estrogen pellet, antiestrogen-treated animals, or CDDP-treated animals. Animals in the antiestrogen treatment group are anesthetized, the estrogen pellet is surgically removed, and a Tam pellet (5 mg/pellet, 60-day release) implanted. The CDDP-treated animals receive 5 mg/kg CDDP injected i.p. on a q4dx5 schedule (every 4 days for 5 courses). All animals are injected i.p. with 150 mg/kg BrdU (Sigma-Aldrich) 1 hour prior to euthanization. Xenograft tumors are weighed and fixed in 10% neutral buffered formalin, paraffin embedded, and cut into 5-ÿm sections. For immunohistochemical staining, sections are deparaffinized in xylene and rehydrated through a graded series of ethanol/water solutions. A BrdU detection kit is utilized as recommended by the manufacturer. BrdU incorporation is scored in a blinded manner, and at least 500 cells per section are counted from several random fields.

SMILES	cell-cycle arrest (replicative fraction, BrdU) ([1]; Ad-E2F3-infected versus control infected MCF7 cells, absence of estrogen plus agent)	cell-cycle inhibition by the agent (BrdU labeling) ([1]; RB-depleted cells (MCF7 siRb28, T47D and Zr-75-1 siRb88), CDT serum plus agent, 3 days)	cell-cycle progression (BrdU labeling) ([1]; cells harboring functional RB (MCF7, T47D, Zr-75-1 donor), CDT serum plus agent, 3 days, 10^−9 M 4-HydroxyTam or 10^−6 M ICI)	cell-cycle arrest (replicative fraction, BrdU) ([2]; Ad-E2F3-infected versus control infected MCF7 cells, 16 μM CDDP for 18 hours)	DNA damage checkpoint (BrdU labeling) ([2]; MCF7 siRb28 versus donor 1 cells, CDDP 0, 8, or 16 μM)	BrdU incorporation following DNA damage ([2]; RB-deficient (siRb88) T47D and Zr-75-1 cells, 0, 8, or 16 μM CDDP)	effect on cell-cycle progression (BrdU labeling) ([2]; wild-type RB-positive MCF7, T47D, Zr-75-1 cells, 0, 8, or 16 μM CDDP for 18 hours, BrdU 10 hours)	tumor response during treatment, RB-deficient tumors ([3]; RB-deficient MCF7 tumors versus control tumors, 5 mg/kg CDDP every 4 days for 5 courses)	tumor response during treatment ([3]; RB-proficient and RB-deficient MCF7 tumors, 5 mg/kg CDDP i.p. every 4 days for 5 courses)	tumor weight upon excision, tumors lacking RB relative to control tumors ([3]; following CDDP therapy)
C[C@]12CC[C@@H]3c4ccc(O)cc4C[C@@H](CCCCCCCCC[S+]([O-])CCCC(F)(F)C(F)(F)F)[C@H]3[C@@H]1CC[C@@H]2O (stereo partly shown) [ICI182780]	significantly reduced levels of cell-cycle arrest	significantly reduced	elicit cell-cycle inhibition							
N.N.[Cl][Pt][Cl] [CDDP, cis-diamminedichloroplatinum II]				significantly reduced levels of cell-cycle arrest	RB deficiency promotes bypass of the DNA damage checkpoints	continue to incorporate BrdU efficiently	dose-dependent cell-cycle checkpoint	regressed more rapidly	both tumor types regressed	less than half as much as control tumors

— patent publication US8470534B2, “Methods of predicting resistance or sensitivity to therapies for cancer” (priority 2006, dated 2013)
